PubChem BioAssay AID248 (DTP/NCI, 2004)
Inconclusive results and toxic doses are left out. Rule as the data show it: active = T/C of 150% or more; inactive = T/C below 125%.

Tested on: L1210 leukemia ip in BDF1 mice, survival T/C
Assay: NCI In Vivo Anticancer Drug Screen. Data for tumor model L1210 Leukemia (intraperitoneal) in B6D2F1 (BDF1) mice
Details: endpoint: mean survival time, higher = longer survival
In short: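 Transplantable tumor model; survival measured in treated vs vehicle control mice. Value = treated/control.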

[1] = dose: 50.0 mg/kg/injection, schedule: Q01DX001 (ip), vehicle: saline
[2] = dose: 100.0 mg/kg/injection, schedule: Q01DX001 (ip), vehicle: saline
[3] = dose: 200.0 mg/kg/injection, schedule: Q01DX001 (ip), vehicle: saline
[4] = dose: 400.0 mg/kg/injection, schedule: Q01DX001 (ip), vehicle: saline
[5] = dose: 100.0 mg/kg/injection, schedule: Q04DX002 (ip), vehicle: saline with Tween-80
[6] = dose: 200.0 mg/kg/injection, schedule: Q04DX002 (ip), vehicle: saline with Tween-80
[7] = dose: 400.0 mg/kg/injection, schedule: Q04DX002 (ip), vehicle: saline with Tween-80
[8] = dose: 6.25 mg/kg/injection, schedule: Q01DX009 (ip), vehicle: saline
[9] = dose: 12.5 mg/kg/injection, schedule: Q01DX009 (ip), vehicle: saline
[10] = dose: 100.0 mg/kg/injection, schedule: Q04DX003 (ip), vehicle: Klucel (hydroxypropylcellulose) (HPC)
[11] = dose: 200.0 mg/kg/injection, schedule: Q04DX003 (ip), vehicle: Klucel (hydroxypropylcellulose) (HPC)
[12] = dose: 100.0 mg/kg/injection, schedule: Q01DX001 (ip), vehicle: saline with Tween-80
[13] = dose: 200.0 mg/kg/injection, schedule: Q01DX001 (ip), vehicle: saline with Tween-80

Measured: T/C

CC(C)[CH2][Sn](=[O])[CH2]C(C)C
inactive: dose: 6.25 mg/kg/injection, schedule: Q04DX002 (ip), vehicle: saline with Tween-80 108 % of control | dose: 12.5 mg/kg/injection, schedule: Q04DX002 (ip), vehicle: saline with Tween-80 96 % of control

COc1ccc(C(=O)CCC(=O)O)cc1OC
inactive: dose: 50.0 mg/kg/injection, schedule: Q01DX001 (ip), vehicle: carboxymethylcellulose (CMC) 97 % of control | dose: 100.0 mg/kg/injection, schedule: Q01DX001 (ip), vehicle: carboxymethylcellulose (CMC) 100 % of control | dose: 200.0 mg/kg/injection, schedule: Q01DX001 (ip), vehicle: carboxymethylcellulose (CMC) 92 % of control | dose: 400.0 mg/kg/injection, schedule: Q01DX001 (ip), vehicle: carboxymethylcellulose (CMC) 92 % of control

COc1cc2ccnc(C=O)c2cc1OC
inactive: [1] 96 % of control | [2] 95 % of control | [3] 101 % of control

COc1cc(Cl)c(/C=C2\N=C(c3ccccc3)OC2=O)cc1OC
inactive: [1] 94 % of control | [2] 91 % of control | [3] 97 % of control | [4] 94 % of control

c1ccc([As]2c3ccccc3Nc3ccccc32)cc1
inactive: [5] 89 % of control | [6] 86 % of control | [7] 86 % of control

O=C(Nc1ccccc1)OC1CCCCC1OC(=O)Nc1ccccc1 (stereo not drawn)
inactive: [5] 87 % of control | [6] 107 % of control | [7] 97 % of control

CCCCCCCCCCCCC/C=N\NC(=O)CCCC(=O)N/N=C/CCCCCCCCCCCCC
inactive: dose: 50.0 mg/kg/injection, schedule: Q01DX001 (ip), vehicle: other 93 % of control | dose: 100.0 mg/kg/injection, schedule: Q01DX001 (ip), vehicle: other 91 % of control | dose: 200.0 mg/kg/injection, schedule: Q01DX001 (ip), vehicle: other 93 % of control | dose: 400.0 mg/kg/injection, schedule: Q01DX001 (ip), vehicle: other 98 % of control

CCCCN=Cc1ccc(Cl)cc1
inactive: [5] 90 % of control | [6] 87 % of control | [7] 100 % of control

CC1=NN(c2ccccc2)C(=O)/C1=C\c1ccccc1
inactive: dose: 100.0 mg/kg/injection, schedule: Q01DX009 (ip), vehicle: Klucel (hydroxypropylcellulose) (HPC) 97 % of control | dose: 200.0 mg/kg/injection, schedule: Q01DX009 (ip), vehicle: Klucel (hydroxypropylcellulose) (HPC) 95 % of control

CNCCC=C1c2ccccc2CCc2ccccc21
inactive: dose: 3.12 mg/kg/injection, schedule: Q01DX009 (ip), vehicle: saline 101 % of control | [8] 101 % of control | [9] 106 % of control | dose: 25.0 mg/kg/injection, schedule: Q01DX009 (ip), vehicle: saline 106 % of control | dose: 25.0 mg/kg/injection, schedule: Q04DX003 (ip), vehicle: saline 96 % of control | dose: 50.0 mg/kg/injection, schedule: Q01DX009 (ip), vehicle: saline 117 % of control | dose: 50.0 mg/kg/injection, schedule: Q04DX003 (ip), vehicle: saline 96 % of control

CCCC[As](=O)(O)CC(C)C
inactive: [8] 93 % of control | [9] 101 % of control

COc1ccccc1N=Nc1ccc(O)c(C(=O)O)c1
inactive: [10] 102 % of control | [11] 103 % of control

CNC1=CC(=O)C1(F)F
inactive: dose: 12.5 mg/kg/injection, schedule: Q01DX001 (ip), vehicle: Klucel (hydroxypropylcellulose) (HPC) 101 % of control | dose: 25.0 mg/kg/injection, schedule: Q01DX001 (ip), vehicle: Klucel (hydroxypropylcellulose) (HPC) 108 % of control | dose: 50.0 mg/kg/injection, schedule: Q01DX001 (ip), vehicle: Klucel (hydroxypropylcellulose) (HPC) 108 % of control

O=[N+]([O-])c1ccc(-c2cc3ccccc3nc2Cl)cc1
inactive: [2] 92 % of control | [3] 90 % of control | [4] 101 % of control

COCc1c(C)cc(C)cc1C
inactive: [1] 91 % of control | [2] 107 % of control | [3] 103 % of control | [4] 113 % of control

C=COC(=O)NC(Cc1ccccc1)C(=O)O (stereo not drawn)
inactive: [2] 97 % of control | [3] 89 % of control

CCSc1ncnc2c1nnn2C1OC(CO)C(O)C1O (stereo not drawn)
inactive: dose: 12.5 mg/kg/injection, schedule: Q01DX001 (ip), vehicle: saline with Tween-80 100 % of control | dose: 25.0 mg/kg/injection, schedule: Q01DX001 (ip), vehicle: saline with Tween-80 102 % of control | dose: 50.0 mg/kg/injection, schedule: Q01DX001 (ip), vehicle: saline with Tween-80 97 % of control | [12] 103 % of control | [13] 108 % of control

C1CN(CC2COC(CN3CCOCC3)CO2)CCO1 (stereo not drawn)
inactive: dose: 100.0 mg/kg/injection, schedule: Q04DX003 (ip), vehicle: saline 106 % of control | dose: 200.0 mg/kg/injection, schedule: Q04DX003 (ip), vehicle: saline 97 % of control | dose: 400.0 mg/kg/injection, schedule: Q04DX003 (ip), vehicle: saline 98 % of control

O=S(=O)(NC/C=C/c1ccccc1)c1ccccc1
inactive: dose: 100.0 mg/kg/injection, schedule: Q01DX001 (ip), vehicle: Klucel (hydroxypropylcellulose) (HPC) 96 % of control | dose: 200.0 mg/kg/injection, schedule: Q01DX001 (ip), vehicle: Klucel (hydroxypropylcellulose) (HPC) 103 % of control | dose: 400.0 mg/kg/injection, schedule: Q01DX001 (ip), vehicle: Klucel (hydroxypropylcellulose) (HPC) 102 % of control

CC(C)CCCC(C)C1CCC2C3CCC(CCO)C(C)(CCO)C3CCC12C (stereo not drawn)
inactive: [12] 97 % of control | [13] 92 % of control | dose: 400.0 mg/kg/injection, schedule: Q01DX001 (ip), vehicle: saline with Tween-80 94 % of control

CCCC(C)NCCOC(=O)Nc1ccccc1 (stereo not drawn)
inactive: dose: 75.0 mg/kg/injection, schedule: Q01DX001 (ip), vehicle: saline 91 % of control | dose: 150.0 mg/kg/injection, schedule: Q01DX001 (ip), vehicle: saline 101 % of control

OCCOc1cccc(OCCO)c1
inactive: dose: 100.0 mg/kg/injection, schedule: Q04DX003 (ip), vehicle: saline with Tween-80 103 % of control | dose: 200.0 mg/kg/injection, schedule: Q04DX003 (ip), vehicle: saline with Tween-80 104 % of control | dose: 400.0 mg/kg/injection, schedule: Q04DX003 (ip), vehicle: saline with Tween-80 92 % of control

CC1CC(=O)c2cccc(Cl)c2N1C (stereo not drawn)
inactive: [10] 100 % of control | [11] 100 % of control | dose: 400.0 mg/kg/injection, schedule: Q04DX003 (ip), vehicle: Klucel (hydroxypropylcellulose) (HPC) 98 % of control
